Test results as given in ChEMBL document CHEMBL4699661, “Synthesis and Biological Characterization of Cyclic Disulfide-Containing Peptide Analogs of the Multifunctional Opioid/Neuropeptide FF Receptor Agonists That Produce Long-Lasting and Nontolerant Antinociception” (J Med Chem, 2020).
Activity calls are given as the source filed them. The calls are words filed in the database; no cut-off is given here.

Key:
Mu-type opioid receptor = Mu-type opioid receptor (Homo sapiens, UniProt P35372); test: Agonist activity at mu opioid receptor (unknown origin) expressed in HEK293-A cells assessed as inhibition of forskolin-stimulated cAMP accumulation incubated for 30 mins by competition PKA binding assay; format: functional, cell-based
[1] = target: Kappa-type opioid receptor (Homo sapiens, UniProt P41145); test: Agonist activity at kappa opioid receptor (unknown origin) expressed in HEK293-A cells assessed as inhibition of forskolin-stimulated cAMP accumulation incubated for 30 mins by competition PKA binding assay; format: functional, cell-based; conditions: read-out: EC50
[2] = target: T1, Delta-type opioid receptor (Homo sapiens, UniProt P41143); test: Agonist activity at delta opioid receptor (unknown origin) expressed in HEK293-A cells assessed as inhibition of forskolin-stimulated cAMP accumulation incubated for 30 mins by competition PKA binding assay; format: functional, cell-based
[3] = target: T1, Delta-type opioid receptor; test: Agonist activity at delta opioid receptor (unknown origin) expressed in HEK293-A cells assessed as inhibition of forskolin-stimulated cAMP accumulation incubated for 30 mins by competition PKA binding assay relative to control; format: functional, cell-based; conditions: filed as agonist
[4] = target: T2, Neuropeptide FF receptor 1 (Homo sapiens, UniProt Q9GZQ6); test: Agonist activity at NPFFR1 (unknown origin) expressed in HEK293-A cells assessed as inhibition of forskolin-stimulated cAMP accumulation incubated for 30 mins by competition PKA binding assay; format: functional, cell-based
[5] = target: T2, Neuropeptide FF receptor 1; test: Agonist activity at NPFFR1 (unknown origin) expressed in HEK293-A cells assessed as inhibition of forskolin-stimulated cAMP accumulation incubated for 30 mins by competition PKA binding assay relative to control; format: functional, cell-based; conditions: filed as agonist
[6] = target: T3, Neuropeptide FF receptor 2 (Homo sapiens, UniProt Q9Y5X5); test: Agonist activity at NPFFR2 (unknown origin) expressed in HEK293-A cells assessed as inhibition of forskolin-stimulated cAMP accumulation incubated for 30 mins by competition PKA binding assay; format: functional, cell-based
[7] = target: T3, Neuropeptide FF receptor 2; test: Agonist activity at NPFFR2 (unknown origin) expressed in HEK293-A cells assessed as inhibition of forskolin-stimulated cAMP accumulation incubated for 30 mins by competition PKA binding assay relative to control; format: functional, cell-based; conditions: filed as agonist
[8] = Half life in 15% mouse brain at 0.01 mM by RP-HPLC analysis; format: ADME, tissue-based
[9] = Half life in 100% mouse plasma at 0.01 mM by RP-HPLC analysis; format: ADME, cell-free
[10] = Drug level in Kunming mouse plasma at 1 mg/kg, iv after 5 to 240 mins by LC-MS/MS analysis; format: ADME, organism-based; conditions: time 5-240 min
[11] = Drug level in Kunming mouse brain at 1 mg/kg, iv after 5 to 240 mins by LC-MS/MS analysis; format: ADME, organism-based; conditions: in vivo, time 5-240 min
[12] = Ratio of drug level in brain to plasma in Kunming mouse brain at 1 mg/kg, iv after 5 to 240 mins by LC-MS/MS analysis; format: ADME, organism-based; conditions: time 5-240 min, read-out: BPR
Mus musculus [13] = test: Analgesic activity in icv dosed Kunming mouse by radiant heat tail flick test; format: functional
Mus musculus [14] = test: Analgesic activity in icv dosed Kunming mouse assessed as time duration during which supraspinal antinociception lasted by radiant heat tail flick test; format: functional
Mus musculus [15] = test: Analgesic activity in Kunming mouse at 30 pmol, icv by radiant heat tail flick test; format: functional
Mus musculus [16] = test: Analgesic activity in Kunming mouse at 30 pmol, icv pre-treated with 10 nmol, icv opioid receptor antagonist beta-funaltrexamine by radiant heat tail flick test; format: functional, organism-based
Mus musculus [17] = test: Analgesic activity in Kunming mouse assessed as increase in antinociceptive effect at 0.03 pmol, icv pre-treated with 10 nmol, icv NPFF receptor antagonist RF9 by radiant heat tail flick test; format: functional, organism-based
Mus musculus [18] = test: Analgesic activity in sc dosed Kunming mouse by radiant heat tail flick test; format: functional
Mus musculus [19] = test: Analgesic activity in sc dosed Kunming mouse assessed as time duration during which antinociception lasted by radiant heat tail flick test; format: functional
Mus musculus [20] = test: Analgesic activity in Kunming mouse at 0.09 umol/kg, sc by radiant heat tail flick test; format: functional; conditions: dose 0.09 µmol/kg
Mus musculus [21] = test: Analgesic activity in icv dosed Kunming mouse dosed once daily for 8 consecutive days by radiant heat tail flick test; format: functional, organism-based; conditions: time 8.0 day
Mus musculus [22] = test: Analgesic activity in sc dosed Kunming mouse dosed once daily for 8 consecutive days by radiant heat tail flick test; format: functional, organism-based; conditions: time 8.0 day
[23] = Toxicity in Kunming mouse assessed as effect on motor coordination at 30 pmol, icv by rotarod test; conditions: in vivo, icv_or_intrathecal
[24] = Toxicity in Kunming mouse assessed as effect on motor coordination at 0.09 umol/kg, sc by rotarod test; format: organism-based; conditions: in vivo, dose 0.09 µmol/kg
[25] = Toxicity in Kunming mouse assessed as increase in total travelled distance at 0.09 umol/kg, sc by open field assay; format: organism-based; conditions: in vivo, dose 0.09 µmol/kg
[26] = Toxicity in Kunming mouse assessed as activation of reward circuits at 0.09 umol/kg, sc by CPP test; format: organism-based; conditions: in vivo, dose 0.09 µmol/kg
[27] = Toxicity in Kunming mouse assessed as increase in jumping counts after naloxone-injection at 0.09 umol/kg, sc by naloxone-precipitated withdrawal test; format: organism-based; conditions: in vivo, dose 0.09 µmol/kg
[28] = Induction of constipation in sc dosed Kunming mouse assessed as inhibition of gastrointestinal motility by charcoal based gastrointestinal motility test; format: organism-based; conditions: in vivo
[29] = Safety index, ratio of ED50 for induction of constipation in sc dosed Kunming mouse to ED50 for analgesic activity in sc dosed Kunming mouse; format: organism-based; conditions: in vivo, read-out: Ratio ED50

N=C(N)NCCC[C@H](NC(=O)[C@H](CCC(N)=O)NC(=O)[C@@H]1CCCN1C(=O)[C@@H]1CSSC[C@@H](NC(=O)[C@@H](N)Cc2ccc(O)cc2)C(=O)NCC(=O)N[C@@H](Cc2ccccc2)C(=O)N1)C(=O)N[C@@H](Cc1ccccc1)C(N)=O
EC50 (Mu-type opioid receptor): 43.1 nM | EC50 [1]: 866 nM | EC50 [2]: 174 nM | Emax [3]: 65.1% | EC50 [4]: 7.5 nM | Emax [5]: 75.9% | EC50 [6]: 19.2 nM | Emax [7]: 53.3% | half-life at 10 µM [8]: 173 min | half-life at 10 µM [9]: 53.6 min | AUC [10]: 63 ng·h/mL | Drug uptake [11]: 3.87 µg·min/g | Kp [12]: 1.02 | ED50 (Mus musculus [13]): 0.014 pmol | Activity (Mus musculus [14]): Dose-dependent effect | Time (Mus musculus [14]): 3 h | MPE (Mus musculus [15]): 90% | Activity (Mus musculus [16]): inactive | Activity (Mus musculus [17]): Active | Activity (Mus musculus [18]): Dose-dependent effect | ED50 (Mus musculus [18]): 0.003 µmol/kg | Time (Mus musculus [19]): 4 h | Activity (Mus musculus [20]): 80% | Activity (Mus musculus [21]): Active | Activity (Mus musculus [22]): Active | Activity [23]: Non-Toxic | Activity [24]: Non-Toxic | Activity [25]: Non-Toxic | Activity [26]: Non-Toxic | Activity [27]: Non-Toxic | Activity [28]: Dose-dependent effect | ED50 [28]: 2.25 µmol/kg | selectivity ratio [29]: 750
